The test system of one test is MV-3 cells. The test can be described thus: MTT cell viability (antiproliferative) assay. The format is cell-based, human. The note with it: for EC50: Homo sapiens, read-out: MV-3 EC50 (MTT); for viability reduction, MV-3 (MTT): at 15 μM, 72 h. Here is the method: (§1) To evaluate the cytotoxicity of the selected HDAC inhibitors, compounds were tested for their antiproliferative activity against MV-3 and MDA-MB-231 cells using the MTT assay. […] MTT (3-(4,5-dimethylthiazol-2-yl)-2,5-diphenyltetrazolium bromide; Catalog# A2231; BioChemica, Applichem GmbH, Darmstadt, Germany) was utilized to measure the antiproliferative effect. Depending on the incubation time, 3000 MV-3 cells (72 h), 2000 MV-3 cells (96 h) or 1000 MV-3 cells (120 h) per well were seeded in 96-well plates (Starlab GmbH, Hamburg, Germany) with each well containing 199 μL of volume. […] Next, predilutions of the test compounds were prepared in DMSO. […] Subsequently, cells were treated with 1.0 μL of the dilution series of the test compounds. […] After removing the supernatant, formazan was solubilized in 200.0 μL DMSO. The absorbance was measured at 570 nm with background subtraction at 690 nm using a Multiskan microplate photometer (Thermo Fisher Scientific, Waltham, MA, USA). The obtained data were normalized to PBS, considering 100% viability.

For a further test, the system named is MDA-MB-231 cells. The test can be described thus: MTT cell viability (antiproliferative) assay. The note with it: Homo sapiens. The format is cell-based. Here is the method:
as §1

Another test concerns HEK293 cells. The test can be described thus: CellTiter-Glo 2.0 cell viability assay. The format is cell-based. The settings on record: Homo sapiens; for EC50: 120 h incubation, nontumorigenic cell line. Here is the method: (§2) To evaluate the cytotoxicity of the selected HDAC inhibitors, compounds were tested for their antiproliferative activity against MV-3 and MDA-MB-231 cells using the MTT assay. […] (Promega; Walldorf, Germany) was utilized to assess the antiproliferative effects. MM.1S and HEK293 cells were seeded at a density of 1000 cells per well in 384-well plates, with each well containing 22.5 μL of volume. […] Subsequently, cells were stimulated with 2.5 μL of the dilution series of the test compounds. Following compound exposure, the plates were incubated for 120 h in the incubator set at 37 °C with 5% CO2. Post 120 h of incubation, 25.0 μL of CellTiter-Glo reagent was dispensed into each well and the plates were incubated at the room temperature for 10 min. Luminescence was then measured using a Spark multimode microplate reader (Tecan Group AG, Maennedorf, Swiss). Data were normalized against controls: wells treated with 0.5% DMSO were set as 100% viable, while those treated with 10% DMSO were considered completely nonviable (0% viability).

A further test concerns MM.1S cells. The test can be described thus: CellTiter-Glo 2.0 cell viability assay. The format is cell-based. The note with it: Homo sapiens, MM1.S; 120 h incubation. Here is the method:
as §2

Another test deals with Ac-α-tubulin (HDAC6). The test can be described thus: Immunoblot analysis of MV-3 cell lysates. The format is cell-based, human. The note with it: MV-3, 5 μM, 24–72 h.
Test [1] deals with HDAC1. The note with it: cited from earlier work.
A further test relates to HDACs in MV-3 cells. The test can be described thus: HDAC whole cell inhibition assay. The note with it: Homo sapiens, MV-3, light or radiation study, 18 h, read-out: whole-cell HDAC inhibition EC50, MV-3.
In test [2] the target is HDAC1 (Homo sapiens, UniProt Q13547). The test can be described thus: Binding kinetics via the progression method (continuous HDAC assay). Type of test: biochemical. More on the design: purchased BPS Bioscience Inc. #50051. The note with it: 45 min, 28 °C. Here is the method: To this end, HDAC1, the substrate, and trypsin were incubated directly with the inhibitor at various concentrations and fluorescence was recorded continuously for 45 min. […] By plotting the ratio of the deacetylation rate in the presence of the inhibitor (v i) to the rate in absence of any inhibitor (v 0) as a function of the inhibitor concentration and fitting the data to an appropriate model (eq 3), the equilibrium […] K i was determined (Figure ).
To investigate the binding mode of both compounds, we performed molecular docking studies. Specifically, ST13 was docked into HDAC2 (PDB ID: 3MAX), a cocrystal structure containing an HDAC inhibitor with an ortho-aminoanilide ZBG and a phenyl group as the FPU.
Appropriate test compound concentrations were chosen based on the previously determined IC50 values. […] Each progression curve was fitted to either obtain the apparent first-order rate constant k obs (eq ) or the linear conversion rates v i and v 0 (eq ). For fast-on/fast-off inhibitors, the ratio v i/v 0 was plotted against the corresponding inhibitor concentrations.

Where [3] appears, read: MV-3, light or radiation study, incubation time 120 h, no irradiation.
The mark [4] stands for this setting: MDA-MB-231, light or radiation study, incubation time 120 h, no irradiation.
The mark [5] stands for this setting: MDA-MB-231, incubation time 96 h.

Like-named read-outs stand apart in the source and are kept apart here. Some results are limits rather than exact numbers.

Chain of HDAC1 (Homo sapiens, UniProt Q13547) (Q13547 whole entry): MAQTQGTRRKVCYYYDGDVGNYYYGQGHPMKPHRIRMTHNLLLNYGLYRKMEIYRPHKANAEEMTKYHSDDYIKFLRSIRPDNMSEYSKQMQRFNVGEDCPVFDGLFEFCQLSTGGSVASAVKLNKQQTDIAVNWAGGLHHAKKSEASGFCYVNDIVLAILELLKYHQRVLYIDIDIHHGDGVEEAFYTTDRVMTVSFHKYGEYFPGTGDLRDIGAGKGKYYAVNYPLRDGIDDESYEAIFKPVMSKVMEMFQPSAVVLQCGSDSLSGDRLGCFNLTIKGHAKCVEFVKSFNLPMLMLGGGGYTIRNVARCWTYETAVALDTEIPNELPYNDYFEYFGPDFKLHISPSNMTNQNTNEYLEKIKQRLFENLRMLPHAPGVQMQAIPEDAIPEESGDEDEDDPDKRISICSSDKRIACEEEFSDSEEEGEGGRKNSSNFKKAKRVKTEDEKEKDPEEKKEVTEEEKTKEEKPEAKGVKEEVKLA

Turning to `CC(=O)Nc1ccc(C(=O)Nc2cc(-c3cccs3)ccc2N)cc1` [Cpd-60, reference compound], the EC50 is 370 ± 40 nM with MV-3 cells (setting [3]); 2340 ± 790 nM in the test on MV-3 cells (MV-3, incubation time 96 h); 890 ± 250 nM in the test on MDA-MB-231 cells (setting [4]); 3210 ± 1010 nM with MDA-MB-231 cells (setting [5]); 1500 nM with HEK293 cells; 111 nM in the test with MM.1S cells. Further, in the test on HDACs in MV-3 cells, the EC50 was determined as 97 ± 26 nM. The “viability reduction, MV-3 (MTT)” value in the test with MV-3 cells is recorded as less than 25%. Moreover, the “acetylation level of α-tubulin (immunoblot)” value in the test on Ac-α-tubulin (HDAC6) is “absence of HDAC6 inhibition”. In addition, the IC50 in the test with HDAC1 [1] (literature value for Cpd-60, ref number not given) is 7 nM. The “binding mechanism at HDAC1 (progression curves, kobs versus inhibitor concentration)” value at HDAC1 [2] is given as “induced fit slow-binding mechanism”.
Regarding `CC(=O)Nc1ccc(C(=O)Nc2cc(-c3ccccc3)ccc2O)cc1` [ST13, 4-Acetamido-N-(4-hydroxy-[1,1′-biphenyl]-3-yl)-benzamide], the EC50 in the test with MV-3 cells (setting [3]) was 2770 ± 880 nM; in the test on MV-3 cells (MV-3, incubation time 96 h), 7940 ± 1360 nM; in the test with MDA-MB-231 cells (setting [4]), 4870 ± 860 nM; in the test with MDA-MB-231 cells (setting [5]), 13900 ± 3400 nM; in the test with HEK293 cells, more than 5000 nM; in the test with MM.1S cells, 198 nM. Moreover, the EC50 in the test on HDACs in MV-3 cells came to 311 ± 47 nM. The “viability reduction, MV-3 (MTT)” value in the test with MV-3 cells was less than 25%. Besides, in the test on HEK293 cells (at 5.00 μM, 120 h, read-out: inhibition at the stated concentration, HEK293 (CellTiter-Glo)), the inhibition at 5 µM is less than 25%. Also, the “acetylation level of α-tubulin (immunoblot)” value with Ac-α-tubulin (HDAC6) is given as “absence of HDAC6 inhibition”. Moreover, the IC50 with HDAC1 [1] (previously described, ref Methot et al.) was 18 nM. Further, at HDAC1 [2], the “binding mechanism at HDAC1 (progression curves, kobs versus inhibitor concentration)” value is on record as “induced fit slow-binding mechanism”.
